Test results taken from the supplement of paper PMC10307832.

How the values were obtained:
Assay in all cases: relative viability (nuclei count vs DMSO), 5 days (fraction); higher = more cells survive
Decitabine + Luminespib = compound: Nc1ncn([C@H]2C[C@H](O)[C@@H](CO)O2)c(=O)n1 [Decitabine] + CCNC(=O)c1noc(-c2cc(C(C)C)c(O)cc2O)c1-c1ccc(CN2CCOCC2)cc1 [Luminespib] (partner 0.01 µM)
How it was run: (§1)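 Relative viability is defined as nuclei in treated wells over nuclei in vehicle wells. Duplicate plates were run and medians reported. Lung cancer cell lines in 1536-well plates were dosed by pin tool one day after seeding, with one drug or with a fixed anchor-drug dose plus five library-drug doses (not always all listed) in √10 steps, and nuclei were counted after 5 days.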

Decitabine + Bortezomib = compound: Nc1ncn([C@H]2C[C@H](O)[C@@H](CO)O2)c(=O)n1 [Decitabine] + CC(C)C[C@H](NC(=O)[C@H](Cc1ccccc1)NC(=O)c1cnccn1)B(O)O [Bortezomib] (partner 0.002 µM)
How it was run: as §1

[1] = compound: O=C(C[C@H]1NCCC[C@@H]1O)Cn1cnc2cc(Br)c(Cl)cc2c1=O (racemic) [Halofuginone] + O=C(CCCCCCC(=O)Nc1ccccc1)NO [Vorinostat] (partner 1 µM)
How it was run: as §1

Cediranib + Luminespib = compound: COc1cc2c(Oc3ccc4[nH]c(C)cc4c3F)ncnc2cc1OCCCN1CCCC1 [Cediranib] + CCNC(=O)c1noc(-c2cc(C(C)C)c(O)cc2O)c1-c1ccc(CN2CCOCC2)cc1 [Luminespib] (partner 0.01 µM)
How it was run: as §1

Cell Line | relative viability (Decitabine + Luminespib; first compound 0.04 µM) | relative viability (Decitabine + Luminespib; first compound 0.1265 µM) | relative viability (Decitabine + Luminespib; first compound 0.4 µM) | relative viability (Decitabine + Luminespib; first compound 1.265 µM) | relative viability (Decitabine + Luminespib; first compound 4 µM) | relative viability (Decitabine + Bortezomib; first compound 0.04 µM) | relative viability (Decitabine + Bortezomib; first compound 0.1265 µM) | relative viability (Decitabine + Bortezomib; first compound 0.4 µM) | relative viability (Decitabine + Bortezomib; first compound 1.265 µM) | relative viability (Decitabine + Bortezomib; first compound 4 µM) | relative viability ([1]; first compound 0.001 µM) | relative viability ([1]; first compound 0.003162 µM) | relative viability ([1]; first compound 0.01 µM) | relative viability ([1]; first compound 0.03162 µM) | relative viability ([1]; first compound 0.1 µM) | relative viability (Cediranib + Luminespib; first compound 0.04 µM) | relative viability (Cediranib + Luminespib; first compound 0.1265 µM) | relative viability (Cediranib + Luminespib; first compound 0.4 µM) | relative viability (Cediranib + Luminespib; first compound 1.265 µM) | relative viability (Cediranib + Luminespib; first compound 4 µM)
LC-2-ad | 0.839 | 0.958 | 0.782 | 0.492 | 0.558 | 0.799 | 0.779 | 0.459 | 0.304 | 0.329 | 0.695 | 0.706 | 0.69 | 0.696 | 0.686 | 1.05 | 1.06 | 0.99 | 1.08 | 0.772
LCLC-97TM1 | 0.403 | 0.48 | 0.322 | 0.143 | 0.159 | 0.202 | 0.268 | 0.123 | 0.124 | 0.11 | 0.757 | 0.602 | 0.726 | 0.622 | 0.419 | 0.918 | 0.776 | 0.787 | 0.771 | 0.842
LCLC-103H | 0.863 | 0.829 | 0.685 | 0.594 | 0.472 | 0.985 | 1.04 | 0.966 | 0.9 | 0.749 | 0.865 | 0.807 | 0.803 | 0.723 | 0.719 | 0.931 | 1.05 | 0.952 | 1 | 0.894
LOU-NH91 | 0.323 | 0.344 | 0.358 | 0.299 | 0.35 | 0.412 | 0.471 | 0.436 | 0.512 | 0.523 | 0.929 | 0.955 | 0.898 | 0.907 | 0.779 | 0.354 | 0.272 | 0.286 | 0.314 | 0.338
LU99A | 0.248 | 0.24 | 0.318 | 0.251 | 0.24 | 1.06 | 1.26 | 1.31 | 0.989 | 0.949 | 0.482 | 0.578 | 0.51 | 0.479 | 0.453 | 0.301 | 0.255 | 0.252 | 0.269 | 0.256
LXF-289 | 0.418 | 0.313 | 0.261 | 0.222 | 0.196 | 0.775 | 0.714 | 0.503 | 0.347 | 0.324 | 0.709 | 0.829 | 0.728 | 0.763 | 0.686 | 0.719 | 0.52 | 0.587 | 0.7 | 0.55
NCI-H23 | 0.215 | 0.213 | 0.202 | 0.199 | 0.203 | 0.571 | 0.493 | 0.307 | 0.216 | 0.233 | 0.664 | 0.521 | 0.559 | 0.553 | 0.534 | 0.192 | 0.218 | 0.213 | 0.253 | 0.238
NCI-H322M | 0.77 | 0.835 | 0.669 | 0.441 | 0.489 | 1.18 | 1.06 | 0.716 | 0.699 | 0.479 | 0.935 | 0.967 | 0.811 | 0.865 | 0.561 | 0.982 | 1.15 | 0.826 | 0.831 | 0.771
NCI-H441 | 0.271 | 0.371 | 0.337 | 0.293 | 0.256 | 0.228 | 0.26 | 0.231 | 0.198 | 0.198 | 0.799 | 0.936 | 0.863 | 0.8 | 0.49 | 0.471 | – | 0.273 | 0.341 | 0.279
NCI-H460 | 0.0345 | 0.0356 | 0.0279 | 0.034 | 0.0328 | 0.909 | 0.991 | 0.811 | 0.35 | 0.272 | 0.675 | 0.756 | 0.744 | 0.495 | 0.176 | 0.0397 | 0.0286 | 0.0301 | 0.0321 | 0.0373
NCI-H520 | 0.212 | 0.214 | 0.214 | 0.254 | 0.239 | 0.628 | 0.595 | 0.374 | 0.297 | 0.221 | 0.644 | 0.711 | 0.551 | 0.612 | 0.309 | 0.251 | 0.262 | 0.188 | 0.2 | 0.308
NCI-H596 | 0.9 | 1.01 | – | 0.696 | 0.739 | 1.02 | 0.873 | 0.845 | 0.847 | 0.855 | 0.628 | 0.502 | 0.58 | 0.648 | 0.562 | 0.709 | 1.06 | 0.98 | – | 0.955
NCI-H647 | 0.105 | 0.141 | 0.127 | 0.12 | 0.103 | 0.728 | 0.821 | 0.344 | 0.241 | 0.209 | 0.833 | 0.499 | 0.489 | 0.453 | 0.103 | 0.13 | 0.308 | 0.174 | 0.157 | 0.212
NCI-H650 | 0.627 | 0.652 | 0.489 | 0.314 | 0.315 | 0.509 | 0.534 | 0.227 | 0.294 | 0.223 | 0.792 | 0.537 | 0.5 | 0.376 | 0.355 | 0.842 | 0.831 | 0.763 | 1.02 | 0.774
NCI-H661 | 0.937 | 0.771 | 0.628 | 0.534 | 0.452 | 0.688 | 0.61 | 0.459 | 0.339 | 0.332 | 0.773 | 0.803 | 0.682 | 0.549 | 0.491 | 0.978 | 0.842 | 0.913 | 0.908 | 0.982
NCI-H727 | 0.499 | 0.289 | 0.339 | 0.288 | 0.407 | 0.697 | 0.672 | 0.382 | 0.605 | 0.418 | 1.23 | 1.05 | 1.06 | 1.35 | 1.21 | – | – | 0.511 | 0.463 | 0.395
